Calls of active or inactive are those of the source. The rule behind the calls is not given here.
Test system: CCRIS mutagenicity, Ames/micronucleus/aberration tests
Assay: CCRIS mutagenicity studies
Conditions: Method: PREINCUBATION

Measured: mutagenic call

CCCCOC(C)=O
inactive: Test System: AMES SALMONELLA TYPHIMURIUM, Strain/Indicator: TA97, Metabolic Activation: HAMSTER, LIVER, S-9, AROCLOR 1254 (10 OR 30%) inactive; negative | Test System: AMES SALMONELLA TYPHIMURIUM, Strain/Indicator: TA97, Metabolic Activation: NONE inactive; negative | Test System: AMES SALMONELLA TYPHIMURIUM, Strain/Indicator: TA97, Metabolic Activation: RAT, LIVER, S-9, AROCLOR 1254 (10 OR 30%) inactive; negative | Test System: AMES SALMONELLA TYPHIMURIUM, Strain/Indicator: TA98, Metabolic Activation: HAMSTER, LIVER, S-9, AROCLOR 1254 (10 OR 30%) inactive; negative | Test System: AMES SALMONELLA TYPHIMURIUM, Strain/Indicator: TA98, Metabolic Activation: RAT, LIVER, S-9, AROCLOR 1254 (10 OR 30%) inactive; negative | Test System: AMES SALMONELLA TYPHIMURIUM, Strain/Indicator: TA98, Metabolic Activation: RAT, LIVER, S-9, KC 500 inactive; negative | Test System: AMES SALMONELLA TYPHIMURIUM, Strain/Indicator: TA98, Metabolic Activation: RAT, LIVER, S-9, PHENOBARBITAL AND BETA-NAPHTHOFLAVONE inactive; negative | Test System: AMES SALMONELLA TYPHIMURIUM, Strain/Indicator: TA100, Metabolic Activation: HAMSTER, LIVER, S-9, AROCLOR 1254 (10 OR 30%) inactive; negative | Test System: AMES SALMONELLA TYPHIMURIUM, Strain/Indicator: TA100, Metabolic Activation: RAT, LIVER, S-9, AROCLOR 1254 (10 OR 30%) inactive; negative | Test System: AMES SALMONELLA TYPHIMURIUM, Strain/Indicator: TA100, Metabolic Activation: RAT, LIVER, S-9, KC 500 inactive; negative | Test System: AMES SALMONELLA TYPHIMURIUM, Strain/Indicator: TA100, Metabolic Activation: RAT, LIVER, S-9, PHENOBARBITAL AND BETA-NAPHTHOFLAVONE inactive; negative | Test System: AMES SALMONELLA TYPHIMURIUM, Strain/Indicator: TA102, Metabolic Activation: NONE inactive; negative | Test System: AMES SALMONELLA TYPHIMURIUM, Strain/Indicator: TA102, Metabolic Activation: RAT, LIVER, S-9, PHENOBARBITAL AND BETA-NAPHTHOFLAVONE inactive; negative | Test System: AMES SALMONELLA TYPHIMURIUM, Strain/Indicator: TA104, Metabolic Activation: NONE inactive; negative | Test System: AMES SALMONELLA TYPHIMURIUM, Strain/Indicator: TA104, Metabolic Activation: RAT, LIVER, 2-9, PHENOBARBITAL AND BETA-NAPHTHOFLAVONE inactive; negative | Test System: AMES SALMONELLA TYPHIMURIUM, Strain/Indicator: TA104, Metabolic Activation: RAT, LIVER, S-9, PHENOBARBITAL AND BETA-NAPHTHOFLAVONE inactive; negative | Test System: AMES SALMONELLA TYPHIMURIUM, Strain/Indicator: TA1535, Metabolic Activation: HAMSTER, LIVER, S-9, AROCLOR 1254 (10 OR 30%) inactive; negative | Test System: AMES SALMONELLA TYPHIMURIUM, Strain/Indicator: TA1535, Metabolic Activation: RAT, LIVER, S-9, AROCLOR 1254 (10 OR 30%) inactive; negative | Test System: AMES SALMONELLA TYPHIMURIUM, Strain/Indicator: TA1535, Metabolic Activation: RAT, LIVER, S-9, KC 500 inactive; negative | Test System: AMES SALMONELLA TYPHIMURIUM, Strain/Indicator: TA1535, Metabolic Activation: RAT, LIVER, S-9, PHENOBARBITAL AND BETA-NAPHTHOFLAVONE inactive; negative | Test System: AMES SALMONELLA TYPHIMURIUM, Strain/Indicator: TA1537, Metabolic Activation: HAMSTER, LIVER, S-9, AROCLOR 1254 (30%) inactive; negative | Test System: AMES SALMONELLA TYPHIMURIUM, Strain/Indicator: TA1537, Metabolic Activation: RAT, LIVER, S-9, AROCLOR 1254 (30%) inactive; negative | Test System: AMES SALMONELLA TYPHIMURIUM, Strain/Indicator: TA1537, Metabolic Activation: RAT, LIVER, S-9, KC 500 inactive; negative | Test System: AMES SALMONELLA TYPHIMURIUM, Strain/Indicator: TA1537, Metabolic Activation: RAT, LIVER, S-9, PHENOBARBITAL AND BETA-NAPHTHOFLAVONE inactive; negative | Test System: AMES SALMONELLA TYPHIMURIUM, Strain/Indicator: TA1538, Metabolic Activation: NONE inactive; negative | Test System: AMES SALMONELLA TYPHIMURIUM, Strain/Indicator: TA1538, Metabolic Activation: RAT, LIVER, S-9, KC 500 inactive; negative | Test System: E. COLI, Strain/Indicator: WP2UVRA/PKM101, Metabolic Activation: NONE inactive; negative | Test System: E. COLI, Strain/Indicator: WP2UVRA/PKM101, Metabolic Activation: RAT, LIVER, S-9, PHENOBARBITAL AND BETA-NAPHTHOFLAVONE inactive; negative | Test System: E. COLI, Strain/Indicator: WP2 UVRA, Metabolic Activation: NONE inactive; negative | Test System: E. COLI, Strain/Indicator: WP2UVRA, Metabolic Activation: NONE inactive; negative | Test System: E. COLI, Strain/Indicator: WP2 UVRA, Metabolic Activation: RAT, LIVER, S-9, KC 500 inactive; negative | Test System: E. COLI, Strain/Indicator: WP2UVRA, Metabolic Activation: RAT, LIVER, S-9, PHENOBARBITAL AND BETA-NAPHTHOFLAVONE inactive; negative
